The values below are quoted from earlier work in patent US7422607B2, “Anti-calcification treatments for heart valves and vascular grafts” (priority 2004, dated 2008).

For the data set the following is noted: buffer system described by Giradot (U.S. Pat. No. 4,976,733).

For `CCCCCCCC/C=C\CCCCCCC(N)C(=O)O` (stereo not drawn) [alpha amino oleic acid], the “Solubility in the buffer system” value is “extremely low solubility”.
